Assay results as given in patent US20240343733A1, “COMPOUNDS FOR TARGETING DEGRADATION OF IRAK4 PROTEINS” (BIOGEN MA INC., priority 2021, published 2024).

How the values were obtained:
IRAK4 = target: T1, IRAK4 (Homo sapiens, UniProt Q9NWZ3); assay: IRAK4 Degradation Assay, HiBiT Method; format: cell-based; settings: 293T cells expressing HiBiT-tagged IRAK4, 6 hours
T1 construct: 293Tcells expressing HiBiT-tagged IRAK4 were then added into 384-well plates
T1 sequence (Q9NWZ3 1-460): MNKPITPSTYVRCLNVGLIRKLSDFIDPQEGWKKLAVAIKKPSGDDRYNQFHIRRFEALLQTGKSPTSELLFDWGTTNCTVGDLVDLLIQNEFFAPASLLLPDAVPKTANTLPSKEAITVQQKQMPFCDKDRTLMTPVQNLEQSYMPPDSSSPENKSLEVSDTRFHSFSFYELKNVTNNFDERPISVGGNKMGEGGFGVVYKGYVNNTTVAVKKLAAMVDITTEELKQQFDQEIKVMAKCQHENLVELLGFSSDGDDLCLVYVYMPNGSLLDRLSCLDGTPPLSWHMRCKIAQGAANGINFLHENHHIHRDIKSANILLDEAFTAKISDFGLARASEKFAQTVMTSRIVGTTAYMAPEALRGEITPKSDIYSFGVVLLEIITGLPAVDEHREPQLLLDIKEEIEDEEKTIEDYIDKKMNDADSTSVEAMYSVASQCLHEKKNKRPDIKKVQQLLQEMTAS
Summary of the method: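 Luminescent read-out with Nano-Glo HiBiT lytic reagent after 6 h compound exposure at 37 °C. Cells were HiBiT-IRAK4 knock-in 293T (C-terminal tag), 10,000 per well. Compounds ran as 11-point half-log dilutions from […] highest dose, duplicate wells; DMSO served as negative control.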

IKZF1 = target: T2, IKZF1 (Homo sapiens, UniProt Q13422); assay: IKZF1 Degradation Assay, HiBiT Method; format: cell-based; settings: NCIH929 cells expressing HiBiT-tagged IKZF1, 6 hours, top concentration 10 μM
T2 construct: endogenously expressing IKZF1 with HiBiT fusion tag via CRISPR
T2 sequence (Q96SW2 whole entry partner, the tested form may be a part): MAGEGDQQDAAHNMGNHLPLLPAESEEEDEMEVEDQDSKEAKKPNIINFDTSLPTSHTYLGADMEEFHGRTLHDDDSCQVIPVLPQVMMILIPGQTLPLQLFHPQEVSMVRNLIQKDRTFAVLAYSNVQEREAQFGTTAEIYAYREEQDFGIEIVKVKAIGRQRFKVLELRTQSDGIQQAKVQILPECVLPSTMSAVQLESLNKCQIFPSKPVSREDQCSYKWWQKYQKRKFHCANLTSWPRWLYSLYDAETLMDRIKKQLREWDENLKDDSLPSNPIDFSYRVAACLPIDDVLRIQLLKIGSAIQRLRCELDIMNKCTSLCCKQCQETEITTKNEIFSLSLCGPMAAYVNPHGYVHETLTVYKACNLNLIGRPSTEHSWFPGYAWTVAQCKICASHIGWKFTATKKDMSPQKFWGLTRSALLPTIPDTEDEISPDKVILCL
T2 sequence (Q16531 whole entry partner, the tested form may be a part): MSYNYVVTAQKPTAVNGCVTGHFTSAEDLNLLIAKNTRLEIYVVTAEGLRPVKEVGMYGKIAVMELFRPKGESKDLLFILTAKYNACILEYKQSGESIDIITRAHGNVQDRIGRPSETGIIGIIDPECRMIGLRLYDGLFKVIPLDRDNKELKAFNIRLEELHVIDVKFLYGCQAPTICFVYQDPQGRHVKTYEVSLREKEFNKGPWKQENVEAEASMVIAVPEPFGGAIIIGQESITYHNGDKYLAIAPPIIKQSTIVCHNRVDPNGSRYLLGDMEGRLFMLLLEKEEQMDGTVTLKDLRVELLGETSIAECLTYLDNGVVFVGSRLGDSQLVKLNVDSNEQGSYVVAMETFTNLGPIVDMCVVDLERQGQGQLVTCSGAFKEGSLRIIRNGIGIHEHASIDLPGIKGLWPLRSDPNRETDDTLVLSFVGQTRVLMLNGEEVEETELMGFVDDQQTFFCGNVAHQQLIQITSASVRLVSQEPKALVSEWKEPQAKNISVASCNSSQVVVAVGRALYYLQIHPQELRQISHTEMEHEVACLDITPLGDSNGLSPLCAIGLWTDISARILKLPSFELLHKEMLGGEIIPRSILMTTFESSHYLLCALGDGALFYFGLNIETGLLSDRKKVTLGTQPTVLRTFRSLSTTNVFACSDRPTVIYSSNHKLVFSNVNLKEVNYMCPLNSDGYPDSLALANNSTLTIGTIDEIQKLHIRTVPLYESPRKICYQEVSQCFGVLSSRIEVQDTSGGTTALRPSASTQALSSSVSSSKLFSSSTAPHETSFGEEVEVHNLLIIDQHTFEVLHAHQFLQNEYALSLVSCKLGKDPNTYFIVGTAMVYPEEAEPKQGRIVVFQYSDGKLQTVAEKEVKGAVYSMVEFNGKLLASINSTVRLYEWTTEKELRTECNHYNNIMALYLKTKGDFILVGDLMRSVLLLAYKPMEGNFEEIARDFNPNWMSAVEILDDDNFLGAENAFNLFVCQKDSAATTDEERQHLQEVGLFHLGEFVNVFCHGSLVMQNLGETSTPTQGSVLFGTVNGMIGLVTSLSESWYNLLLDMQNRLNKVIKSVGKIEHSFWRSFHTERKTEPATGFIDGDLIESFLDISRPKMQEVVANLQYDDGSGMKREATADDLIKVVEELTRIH
T2 sequence (Q13422 whole entry, the tested form may be a part): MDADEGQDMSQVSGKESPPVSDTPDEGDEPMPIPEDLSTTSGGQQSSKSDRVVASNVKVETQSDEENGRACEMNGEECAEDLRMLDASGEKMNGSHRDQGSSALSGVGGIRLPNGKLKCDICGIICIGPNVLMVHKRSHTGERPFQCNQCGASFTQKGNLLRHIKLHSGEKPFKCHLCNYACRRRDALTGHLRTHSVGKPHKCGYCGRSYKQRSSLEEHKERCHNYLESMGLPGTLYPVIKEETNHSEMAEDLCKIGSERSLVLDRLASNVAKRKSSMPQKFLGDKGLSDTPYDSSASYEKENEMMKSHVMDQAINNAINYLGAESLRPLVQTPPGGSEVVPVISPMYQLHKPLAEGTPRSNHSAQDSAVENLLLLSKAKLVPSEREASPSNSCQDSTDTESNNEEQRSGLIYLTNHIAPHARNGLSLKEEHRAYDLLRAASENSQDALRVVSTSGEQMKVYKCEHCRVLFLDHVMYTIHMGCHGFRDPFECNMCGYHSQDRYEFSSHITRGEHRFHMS
Protocol: Assay 2. IKZF1 Degradation Assay, HiBiT Method
Selected compounds of this disclosure were tested in an IKZF1 degradation assay using the HiBiT Method.
RPMI no-phenol red medium and fetal bovine serum (FBS) were purchased from Gibco (Grand Island, NY, USA). Nano-Glo® HiBiT Lytic Assay System was purchased from Promega (Madison, WI, USA). […] Cell culture flasks and 384-well microplates were acquired from VWR (Radnor, PA, USA).
IKZF1 degradation was determined based on quantification of luminescent signal using Nano-Glo® HiBiT Lytic Assay kit. […] NCIH929 cells expressing HiBiT-tagged IKZF1 were added into 384-well plates in RPMI medium containing 10% FBS and 0.05 mM 2-mercaptoethanol at a cell density of 15000 cells per well. The plates were kept at 37° C. with 5% CO2 for 6 hours. Cells treated in the absence of the test compound were the negative control and wells containing media only were the positive control. After 6-hour incubation, Nano-Glo® HiBiT Lytic Assay reagents were added to the designated wells. Luminescence was acquired on EnVision® Multilabel Reader (PerkinElmer, Santa Clara, CA, USA).

Row | SMILES | DC50 (IRAK4) | DC50 (IKZF1)
1 | CC(C)Oc1cc2nn([C@H]3CC[C@H](CN4CC[C@@H](c5ccc6c(C7CCC(=O)NC7=O)nn(C)c6c5)[C@H](O)C4)CC3)cc2cc1C(=O)Nc1cccn([C@H]2C[C@H]2F)c1=O (stereo partly drawn) [Example 129, 2-((1S,4S)-4-(((3S,4S)-4-(3-(2,6-dioxopiperidin-3-yl)-1-methyl-1H-indazol-6-yl)-3-hydroxypiperidin-1-yl)methyl)cyclohexyl)-N-(1-((1S,2R)-2-fluorocyclopropyl)-2-oxo-1,2-dihydropyridin-3-yl)-6-isopropoxy-2H-indazole-5-carboxamide] | < 10 nM | > 10000 nM
2 | CC(C)Oc1cc2nn(C3CCN(C(=O)CC4CCN(c5ccc(C6CCC(=O)NC6=O)cn5)CC4)CC3)cc2cc1C(=O)Nc1cnn2cccnc12 (stereo not drawn) [Example 147, 2-(1-(2-(1-(5-(2,6-dioxopiperidin-3-yl)pyridin-2-yl)piperidin-4-yl)acetyl)piperidin-4-yl)-6-isopropoxy-N-(pyrazolo[1,5-a]pyrimidin-3-yl)-2H-indazole-5-carboxamide] | < 10 nM | > 10000 nM
3 | CC(C)Oc1cc2nn(C3CCN(C(=O)CC4(O)CCN(c5cnc6c(c5)n(C)c(=O)n6C5CCC(=O)NC5=O)CC4)CC3)cc2cc1C(=O)Nc1cccn([C@H]2C[C@H]2F)c1=O (stereo partly drawn) [Example 153, 2-(1-(2-(1-(3-(2,6-dioxopiperidin-3-yl)-1-methyl-2-oxo-2,3-dihydro-1H-imidazo[4,5-b]pyridin-6-yl)-4-hydroxypiperidin-4-yl)acetyl)piperidin-4-yl)-N-(1-((1S,2R)-2-fluorocyclopropyl)-2-oxo-1,2-dihydropyridin-3-yl)-6-isopropoxy-2H-indazole-5-carboxamide] | 10 to 100 nM | > 10000 nM
4 | CC(C)Oc1cc2nc(C3CCN(C(=O)CC4CCN(c5ccc(C6CCC(=O)NC6=O)cn5)CC4)CC3)cn2cc1C(=O)Nc1cnn2cccnc12 (stereo not drawn) [Example 159, 2-(1-(2-(1-(5-(2,6-dioxopiperidin-3-yl)pyridin-2-yl)piperidin-4-yl)acetyl)piperidin-4-yl)-7-isopropoxy-N-(pyrazolo[1,5-a]pyrimidin-3-yl)imidazo[1,2-a]pyridine-6-carboxamide] | < 10 nM | > 10000 nM
5 | CC(C)Oc1cc2nc(C3CCN(C(=O)CC4CCN(c5ncc(C6CCC(=O)NC6=O)cc5F)CC4)CC3)cn2cc1C(=O)Nc1cnn2cccnc12 (stereo not drawn) [Example 162, 2-(1-(2-(1-(5-(2,6-dioxopiperidin-3-yl)-3-fluoropyridin-2-yl)piperidin-4-yl)acetyl)piperidin-4-yl)-7-isopropoxy-N-(pyrazolo[1,5-a]pyrimidin-3-yl)imidazo[1,2-a]pyridine-6-carboxamide] | 10 to 100 nM | > 10000 nM

The next lines start with the values.

Row | DC50 (IRAK4) | DC50 (IKZF1) | SMILES
6 | < 10 nM | > 10000 nM | CC(C)Oc1cc2nn([C@H]3CC[C@H](CN4CCC(c5ccc(OC6CCC(=O)NC6=O)cc5)CC4)CC3)cc2cc1C(=O)Nc1cnn2cccnc12 (stereo partly drawn) [Example 115, 2-((1r,4r)-4-((4-(4-((2,6-dioxopiperidin-3-yl)oxy)phenyl)piperidin-1-yl)methyl)cyclohexyl)-6-isopropoxy-N-(pyrazolo[1,5-a]pyrimidin-3-yl)-2H-indazole-5-carboxamide]
7 | < 10 nM | > 10000 nM | CC(C)Oc1cc2nn([C@H]3CC[C@H](CN4CCN(c5ccc(C6CCC(=O)NC6=O)cn5)CC(O)C4)CC3)cc2cc1C(=O)Nc1cccn([C@H]2C[C@H]2F)c1=O (stereo partly drawn) [Example 120, 2-((1r,4S)-4-((4-(5-(2,6-dioxopiperidin-3-yl)pyridin-2-yl)-6-hydroxy-1,4-diazepan-1-yl)methyl)cyclohexyl)-N-(1-((1S,2R)-2-fluorocyclopropyl)-2-oxo-1,2-dihydropyridin-3-yl)-6-isopropoxy-2H-indazole-5-carboxamide]
8 | < 10 nM | > 10000 nM | CC(C)Oc1cc2nn([C@H]3CC[C@H](CN4CC5(CCN(c6ncc(C7CCC(=O)NC7=O)cc6F)CC5)C4)CC3)cc2cc1C(=O)Nc1cccn([C@H]2C[C@H]2F)c1=O (stereo partly drawn) [Example 121, 2-((1r,4S)-4-((7-(5-(2,6-dioxopiperidin-3-yl)-3-fluoropyridin-2-yl)-2,7-diazaspiro[3.5]nonan-2-yl)methyl)cyclohexyl)-N-(1-((1S,2R)-2-fluorocyclopropyl)-2-oxo-1,2-dihydropyridin-3-yl)-6-isopropoxy-2H-indazole-5-carboxamide]
9 | < 10 nM | > 10000 nM | CC(C)Oc1cc2nn([C@H]3CC[C@H](CN4CCC(c5ccc6c(c5)n(C)c(=O)n6C5CCC(=O)NC5=O)C(F)(F)C4)CC3)cc2cc1C(=O)Nc1cccn([C@H]2C[C@H]2F)c1=O (stereo partly drawn) [Example 122, 2-((1r,4S)-4-((4-(1-(2,6-dioxopiperidin-3-yl)-3-methyl-2-oxo-2,3-dihydro-1H-benzo[d]imidazol-5-yl)-3,3-difluoropiperidin-1-yl)methyl)cyclohexyl)-N-(1-((1S,2R)-2-fluorocyclopropyl)-2-oxo-1,2-dihydropyridin-3-yl)-6-isopropoxy-2H-indazole-5-carboxamide]
10 | < 10 nM | > 10000 nM | CC(C)Oc1cc2nn([C@H]3CC[C@H](CN4CCC(c5ccc6c(c5)n(C)c(=O)n6C5CCC(=O)NC5=O)C(F)(F)C4)CC3)cc2cc1C(=O)Nc1cnn2cccnc12 (stereo partly drawn) [Example 123, 2-((1r,4r)-4-((4-(1-(2,6-dioxopiperidin-3-yl)-3-methyl-2-oxo-2,3-dihydro-1H-benzo[d]imidazol-5-yl)-3,3-difluoropiperidin-1-yl)methyl)cyclohexyl)-6-isopropoxy-N-(pyrazolo[1,5-a]pyrimidin-3-yl)-2H-indazole-5-carboxamide]
11 | < 10 nM | > 10000 nM | CC(C)Oc1cc2nn([C@H]3CC[C@H](CNC4CCN(c5ncc(C6CCC(=O)NC6=O)cc5F)CC4)CC3)cc2cc1C(=O)Nc1cccn(C2CC2)c1=O (stereo partly drawn) [Example 125, N-(1-cyclopropyl-2-oxo-1,2-dihydropyridin-3-yl)-2-((1r,4r)-4-(((1-(5-(2,6-dioxopiperidin-3-yl)-3-fluoropyridin-2-yl)piperidin-4-yl)amino)methyl)cyclohexyl)-6-isopropoxy-2H-indazole-5-carboxamide]
12 | < 10 nM | > 10000 nM | CC(C)Oc1cc2nn([C@H]3CC[C@H](CN4CCOC[C@H]4Cc4ccc(OC5CCC(=O)NC5=O)cc4)CC3)cc2cc1C(=O)Nc1cccn([C@H]2C[C@H]2F)c1=O (stereo partly drawn) [Example 128, 2-((1R,4S)-4-(((3R)-3-(4-((2,6-dioxopiperidin-3-yl)oxy)benzyl)morpholino)methyl)cyclohexyl)-N-(1-((1S,2R)-2-fluorocyclopropyl)-2-oxo-1,2-dihydropyridin-3-yl)-6-isopropoxy-2H-indazole-5-carboxamide]
